Legend:
Assay type in all cases: in vivo, rat (Wistar)
[1] = system: ovariectomized female rats, suffering from inflammation (OVX inf); assay: Body weight and uterine weight in ovariectomized female rats with talc-induced inflammation (senile osteoporosis model); conditions: OVX inf female Wistar rats
Protocol: (§1) The experiment was conducted on 40 female rats Wistar aged 6 months, amongst which thirty were ovariectomized (OVX) and 10 pseudo-operated (SH). Animals were placed in metabolic cages enabling to separately collect the urines at a controlled temperature of 21±1° C., according to a 12 h-12 h nyctohemeral cycle. Following the surgical operation at Day0, animals were accustomed for seven days to a basic semisynthetic diet (INRA, Jouy-en-Josas, France), supplemented with 2.5% groundnut oil and 2.5% rapeseed oil and humidified to 1 ml water per gram powder. At the end of this adaptation period, the rats were separated in four homogeneous batches according to weight parameters and were fed for 72 days 22 g per day of following diets: • Batch SH/10 pseudo-operated female rats fed control diet (basic diet supplemented with 2.5% groundnut oil and 2.5% rapeseed oil), • Batch OVXinf: 10 ovariectomized female rats fed control diet, • Batch OL: 10 ovariectomized female rats fed control diet supplemented with 0.015% oleuropein. • Batch HO: 10 ovariectomized female rats fed basic diet supplemented with 5% extra-virgin olive oil.
(§2) Oil storage was kept away from light. Feed was prepared once a week and stored at +4° C.
(§3) At D55, that is 3 weeks before the end of the experiment, an inflammation was induced in each batch, except in control batch (SH). […]

[2] = system: ovariectomized female rats, suffering from inflammation (OVX inf); assay: Inflammation markers (plasma orosomucoid, spleen weight) in ovariectomized female rats with talc-induced inflammation; conditions: OVX inf female Wistar rats; diet for 72 days; sacrifice D80; mean ± SEM
Protocol: as §1, §2, §3

[3] = system: ovariectomized female rats, suffering from inflammation (OVX inf); assay: Femur bone mineral density in ovariectomized female rats with talc-induced inflammation; conditions: OVX inf female Wistar rats
Protocol: as §1, §2
At D55, that is 3 weeks before the end of the experiment, an inflammation was induced in each batch, except in control batch (SH). Four talc subcutaneous injections (3.2 g magnesium silicate (Sigma) suspended in […] physiological saline) were administrated in 4 distinct sites of the animal back.
The day of sacrifice (D80), animals were anesthetized with a chloral intraperitoneal injection (Fluka/8% solution, 0.4 ml/100 g of live weight). Blood samples were collected at abdominal aorta for dosing orosomucoid (inflammation marker, in particular of the acute phase for humans and rats (Fournier and al. 2000), that is produced by lever and other extra-hepatic sites under the control of II1, TNFα and II6 cytokines).
Femurs were collected and removed from adjacent soft tissues, then kept in 80% ethanol for bone density determination.

[4] = diet with 0.015% oleuropein or 5% extra-virgin olive oil for 72 days, sacrifice D80, mean ± SEM
[5] = femur, oleuropein diet for 72 days

Q: How did the uterotrophic effect ([1]; diet for 72 days, judged from uterine weight) turn out when `C/C=C1/[C@H](O[C@@H]2O[C@H](CO)[C@@H](O)[C@H](O)[C@H]2O)OC=C(C(=O)OC)[C@H]1CC(=O)OCCc1ccc(O)c(O)c1` [oleuropein] was run?
A: The uterotrophic effect was “free from any uterotrophic effect”.

Q: And the uterine weight [1, 4]?
A: The uterine weight was 0.034±0.001 g uterus/100 g body weight.

Q: And the spleen weight [2]?
A: Its spleen weight is 0.201±0.011 g spleen/100 g body weight.

Q: And the “total bone mineral density (femur)” value [3, 4]?
A: The value was 0.2258±0.0028 g/cm^2.

Q: What about the “bone cortical substance density” value [3, 5] of the same compound?
A: Its value is “increase”.

Q: What about the “bone trabecular substance density” value [3, 5] of the same compound?
A: The value was “increase”.

From patent US20060193931A1, “Nutritional or therapeutic composition containing the compound oleuropeine or one of the derivatives thereof” (priority 2003, published 2006)
